Laboratory results from PubChem BioAssay AID2060890 (Molecular Pharmacology Branch, DTP, NCI, 2025).

System: LG0703-F948-PDC complex spheroid viability
Assay: Anticancer human tumor LG0703-F948-PDC patient-derived lung adenocarcinoma cell line growth inhibition [RAS]
Settings: for IC50: curve of first compound; for viability, T/C: stronger effect = lower value
Outline: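 Tumour cells grown as complex spheroids with HUVEC endothelial cells and mesenchymal stem cells, treated with RAS pathway inhibitor combinations. Each agent spans half-log steps from near clinical Cmax, or 10 microM where Cmax is unknown.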
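Also: spheroids exposed to agents for 7 days.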
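For viability, T/C in this document: 100% = DMSO vehicle wells.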

**Q.** `C=CC(=O)N1CCN(c2nc(OCC3CCCN3C)nc3c(F)c(-c4nc(N)cc(C)c4C(F)(F)F)c(Cl)cc23)C(C)C1` (centres undefined) + CCn1c(-c2cc(N3CCN(C)CC3)cnc2C(C)OC)c2c3cc(ccc31)-c1csc(n1)CC(NC(=O)C1CC1C)C(=O)N1CCCC(N1)C(=O)OCC(C)(C)C2 was tested. Which IC50 (second compound 0.000949 µM) did it give?
**A.** > 1 µM

**Q.** And the IC50 (second compound 0.003 µM)?
**A.** < 0.00316 µM

**Q.** What about the IC50 (second compound 0.00949 µM) of the same compound?
**A.** < 0.00316 µM

**Q.** What about the IC50 (second compound 0.03 µM) of the same compound?
**A.** < 0.00316 µM

**Q.** What about the IC50 (second compound 0.0949 µM) of the same compound?
**A.** < 0.00316 µM

**Q.** What about the IC50 (second compound 0.3 µM) of the same compound?
**A.** < 0.00316 µM

**Q.** What about the viability, T/C (second compound 0.000949 µM, first compound 0.00316 µM) of the same compound?
**A.** 68%

**Q.** And the viability, T/C (second compound 0.000949 µM, first compound 0.01 µM)?
**A.** 75.1%

**Q.** What about the viability, T/C (second compound 0.000949 µM, first compound 0.0316 µM) of the same compound?
**A.** 71%

**Q.** What about the viability, T/C (second compound 0.000949 µM, first compound 0.1 µM) of the same compound?
**A.** 66.5%

**Q.** What about the viability, T/C (second compound 0.000949 µM, first compound 0.316 µM) of the same compound?
**A.** 69.9%

**Q.** What about the viability, T/C (second compound 0.000949 µM, first compound 1 µM) of the same compound?
**A.** 62.6%

**Q.** And the viability, T/C (second compound 0.003 µM, first compound 0.00316 µM)?
**A.** 45.5%

**Q.** And the viability, T/C (second compound 0.003 µM, first compound 0.01 µM)?
**A.** 40.5%

**Q.** And the viability, T/C (second compound 0.003 µM, first compound 0.0316 µM)?
**A.** 43.4%

**Q.** And the viability, T/C (second compound 0.003 µM, first compound 0.1 µM)?
**A.** 44%

**Q.** And the viability, T/C (second compound 0.003 µM, first compound 0.316 µM)?
**A.** 47.3%

**Q.** What about the viability, T/C (second compound 0.003 µM, first compound 1 µM) of the same compound?
**A.** 49%

**Q.** And the viability, T/C (second compound 0.00949 µM, first compound 0.00316 µM)?
**A.** 24.9%

**Q.** What about the viability, T/C (second compound 0.00949 µM, first compound 0.01 µM) of the same compound?
**A.** 26.1%

**Q.** What about the viability, T/C (second compound 0.00949 µM, first compound 0.0316 µM) of the same compound?
**A.** 27.9%

**Q.** What about the viability, T/C (second compound 0.00949 µM, first compound 0.1 µM) of the same compound?
**A.** 17.7%

**Q.** What about the viability, T/C (second compound 0.00949 µM, first compound 0.316 µM) of the same compound?
**A.** 25.9%

**Q.** And the viability, T/C (second compound 0.00949 µM, first compound 1 µM)?
**A.** 25.5%

**Q.** What about the viability, T/C (second compound 0.03 µM, first compound 0.00316 µM) of the same compound?
**A.** 13.4%

**Q.** What about the viability, T/C (second compound 0.03 µM, first compound 0.01 µM) of the same compound?
**A.** 14.6%

**Q.** And the viability, T/C (second compound 0.03 µM, first compound 0.0316 µM)?
**A.** 16.2%

**Q.** And the viability, T/C (second compound 0.03 µM, first compound 0.1 µM)?
**A.** 13.1%

**Q.** And the viability, T/C (second compound 0.03 µM, first compound 0.316 µM)?
**A.** 18.8%

**Q.** And the viability, T/C (second compound 0.03 µM, first compound 1 µM)?
**A.** 13.9%

**Q.** What about the viability, T/C (second compound 0.0949 µM, first compound 0.00316 µM) of the same compound?
**A.** 14.2%

**Q.** And the viability, T/C (second compound 0.0949 µM, first compound 0.01 µM)?
**A.** 16.3%

**Q.** And the viability, T/C (second compound 0.0949 µM, first compound 0.0316 µM)?
**A.** 11.3%

**Q.** And the viability, T/C (second compound 0.0949 µM, first compound 0.1 µM)?
**A.** 11%

**Q.** And the viability, T/C (second compound 0.0949 µM, first compound 0.316 µM)?
**A.** 15.2%

**Q.** What about the viability, T/C (second compound 0.0949 µM, first compound 1 µM) of the same compound?
**A.** 15.9%

**Q.** What about the viability, T/C (second compound 0.3 µM, first compound 0.00316 µM) of the same compound?
**A.** 10.4%

**Q.** And the viability, T/C (second compound 0.3 µM, first compound 0.01 µM)?
**A.** 8.07%

**Q.** What about the viability, T/C (second compound 0.3 µM, first compound 0.0316 µM) of the same compound?
**A.** 9.51%

**Q.** And the viability, T/C (second compound 0.3 µM, first compound 0.1 µM)?
**A.** 11.9%

**Q.** What about the viability, T/C (second compound 0.3 µM, first compound 0.316 µM) of the same compound?
**A.** 11.5%

**Q.** What about the viability, T/C (second compound 0.3 µM, first compound 1 µM) of the same compound?
**A.** 10.8%

**Q.** What does the source list for `C[C@@H](NC(=O)c1ncnc(N)c1Cl)c1ncc(C(=O)Nc2cc(C(F)(F)F)c(Cl)cn2)s1` + C#Cc1c(F)ccc2cc(O)cc(-c3ncc4c(N5CC6CCC(C5)N6)nc(OCC56CCCN5CC(F)C6)nc4c3F)c12?
**A.** IC50 (second compound 0.0316 µM): > 10 µM; IC50 (second compound 0.1 µM): > 10 µM; IC50 (second compound 0.316 µM): > 10 µM; IC50 (second compound 1 µM): > 10 µM; IC50 (second compound 3.16 µM): > 10 µM; IC50 (second compound 10 µM): > 10 µM; viability, T/C (second compound 0.0316 µM, first compound 0.0316 µM): 108%; viability, T/C (second compound 0.0316 µM, first compound 0.1 µM): 92.3%; viability, T/C (second compound 0.0316 µM, first compound 0.316 µM): 101%; viability, T/C (second compound 0.0316 µM, first compound 1 µM): 96.7%; viability, T/C (second compound 0.0316 µM, first compound 3.16 µM): 103%; viability, T/C (second compound 0.0316 µM, first compound 10 µM): 104%; viability, T/C (second compound 0.1 µM, first compound 0.0316 µM): 87.5%; viability, T/C (second compound 0.1 µM, first compound 0.1 µM): 87.6%; viability, T/C (second compound 0.1 µM, first compound 0.316 µM): 98.3%; viability, T/C (second compound 0.1 µM, first compound 1 µM): 103%; viability, T/C (second compound 0.1 µM, first compound 3.16 µM): 104%; viability, T/C (second compound 0.1 µM, first compound 10 µM): 98.3%; viability, T/C (second compound 0.316 µM, first compound 0.0316 µM): 85.8%; viability, T/C (second compound 0.316 µM, first compound 0.1 µM): 76.6%; viability, T/C (second compound 0.316 µM, first compound 0.316 µM): 87.3%; viability, T/C (second compound 0.316 µM, first compound 1 µM): 95.4%; viability, T/C (second compound 0.316 µM, first compound 3.16 µM): 109%; viability, T/C (second compound 0.316 µM, first compound 10 µM): 99%; viability, T/C (second compound 1 µM, first compound 0.0316 µM): 86.7%; viability, T/C (second compound 1 µM, first compound 0.1 µM): 74.1%; viability, T/C (second compound 1 µM, first compound 0.316 µM): 64.3%; viability, T/C (second compound 1 µM, first compound 1 µM): 83.5%; viability, T/C (second compound 1 µM, first compound 3.16 µM): 73.5%; viability, T/C (second compound 1 µM, first compound 10 µM): 80%; viability, T/C (second compound 3.16 µM, first compound 0.0316 µM): 63.1%; viability, T/C (second compound 3.16 µM, first compound 0.1 µM): 66.3%; viability, T/C (second compound 3.16 µM, first compound 0.316 µM): 58.6%; viability, T/C (second compound 3.16 µM, first compound 1 µM): 68%; viability, T/C (second compound 3.16 µM, first compound 3.16 µM): 65.4%; viability, T/C (second compound 3.16 µM, first compound 10 µM): 66.6%; viability, T/C (second compound 10 µM, first compound 0.0316 µM): 56.8%; viability, T/C (second compound 10 µM, first compound 0.1 µM): 60.5%; viability, T/C (second compound 10 µM, first compound 0.316 µM): 56.4%; viability, T/C (second compound 10 µM, first compound 1 µM): 56.1%; viability, T/C (second compound 10 µM, first compound 3.16 µM): 70.9%; viability, T/C (second compound 10 µM, first compound 10 µM): 39.5%
